The target of the test is D(3) dopamine receptor (Homo sapiens, UniProt P35462).
Chain of D(3) dopamine receptor (P35462 as listed by the source): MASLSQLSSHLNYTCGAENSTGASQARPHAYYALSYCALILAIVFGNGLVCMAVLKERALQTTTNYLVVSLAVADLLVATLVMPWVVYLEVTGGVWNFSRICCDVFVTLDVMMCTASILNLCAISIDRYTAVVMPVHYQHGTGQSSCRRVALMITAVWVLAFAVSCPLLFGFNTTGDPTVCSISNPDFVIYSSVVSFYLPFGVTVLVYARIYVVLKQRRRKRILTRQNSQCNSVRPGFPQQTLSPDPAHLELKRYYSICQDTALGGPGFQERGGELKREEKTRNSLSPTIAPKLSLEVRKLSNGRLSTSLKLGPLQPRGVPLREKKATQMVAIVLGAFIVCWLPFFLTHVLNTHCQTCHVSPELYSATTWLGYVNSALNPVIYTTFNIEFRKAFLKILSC

Turning to `NC(=O)C1(N2CCCCC2)CCN(CCCN2c3ccccc3CCc3ccccc32)CC1` [CAS_5942-95-0], the Ki (as a rule, the dissociation constant of the complex between target and ligand, obtained from inhibition or displacement) is 15 nM. As for `CN(C)S(=O)(=O)c1ccc2c(c1)N(CCCN1CCC(CCO)CC1)c1ccccc1S2` [CAS_39860-99-6], the affinity corresponds to a Ki of 0.28 nM. Turning to `CCCN[C@@H]1CCc2c(OC)cccc2[C@@H]1C` [CAS_85379-09-5], the inhibition constant Ki amounted to 139 nM. Regarding `CCCN(CCC)C1C=Cc2c(OC)cccc2C1C` (configuration not stated) [CAS_5311190], the Ki was 11 nM. In the case of `Nc1nc2c(ncn2[C@@H]2O[C@H](COP(=O)(O)OP(=O)(O)NP(=O)(O)O)[C@@H](O)[C@H]2O)c(=O)[nH]1` [Guanylyl imidodiphosphate], the Ki worked out at 34 nM. With `CN1CCN(CCCN2c3ccccc3Sc3ccc(S(=O)(=O)N(C)C)cc32)CC1` [NSC_92178], the affinity, expressed as Ki, was 1.2 nM.

The compound `CCS(=O)(=O)c1cc(C(=O)NCC2CCCN2CC2CC2)c(OC)cc1I` (configuration not stated) [NSC_122245] showed a Ki of 1.3 nM.

The values are drawn from BindingDB's records for PubMed 1586393 (U. 109, 1992).
